{
  "source": "patent US9034960B2",
  "about": "“Antidrift composition” (Momentive Performance Materials Inc., priority 2012, dated 2015)",
  "key": {"[1]": {"test": "Spreading/wetting: diameter of a 10 microliter drop on polystyrene dish", "format": "physicochemical", "details": "Table 3; aqueous herbicidal spray composition", "method": "The spreading ability of the various superspreaders utilized herein was determined by depositing a single drop (10 microliters) of solution onto a clean, flat polystyrene dish. The polystyrene surfaces were cleaned by rinsing with isopropanol and then with deionized water. The dishes were then dried with dry nitrogen gas. The diameters of the resulting drops were then measured. Each solution was tested 2 to 4 times and the average diameter was calculated."}, "[2]": {"test_system": "velvetleaf", "test": "Herbicidal performance of glyphosate spray compositions sprayed on velvetleaf", "format": "in vivo", "details": "1% glyphosate IPA salt", "method": "Urea inclusion complexes containing PAM-PAA copolymer, sodium salt (PAM-PAA-Na) (Zetag 4100, BASF), both without and with Silicone A superspreader, were made from molten urea as was a comparison urea inclusion complex containing PAM and Silicone A. Aqueous herbicidal spray compositions were prepared containing 0.75% of these urea inclusion complexes and 1% glyphosate isopropylamine salt (“[…]”) herbicide and evaluated for reduction of drift, increased spreading and herbicidal performance when sprayed on velvetleaf.\nA solution of 0.042% Silicone A and 1% glyphosate IPA salt (Example 26) was used as a control as was a plain 1% glyphosate IPA salt solution (Example 27)."}},
  "data": [
    {"smiles": "CC(C)N.O=C(O)CNCP(=O)(O)O", "note": "[Example 27, glyphosate isopropylamine salt]", "values": [
      {"measurement": "Drop Spread Diameter", "setting": "[1]", "value": 4.8, "unit": "mm"},
      {"measurement": "% Control after 1 week", "setting": "[2]; after 1 week", "value": 25, "unit": "%"},
      {"measurement": "% Control after 2 weeks", "setting": "[2]; after 2 weeks", "value": 81, "unit": "%"}
    ]}
  ]
}
